Results taken from patent US20250207131A1, “MODIFIED RNA AGENTS WITH REDUCED OFF-TARGET EFFECT” (Alnylam Pharmaceuticals, Inc., priority 2018, published 2025).
Each block holds one compound with its values, some of them ahead of it.

How the values were obtained:
Pol-RMT = Pol-RMT (Homo sapiens, UniProt O00411); assay: Triphosphate incorporation assay by Pol-RMT; type: biochemical; conditions: 200 nM template, 50 nM primer, 300 nM enzyme, 1 mM or 100 μM NTPs, 30 min, 35° C.
Experimental: (§1) 5′-(R)- and (S)—C-Me-guanosine triphosphate Evaluations: 5′-(R)- and (S)—C-Me-guanosine triphosphate were evaluated with Pol-RMT and DNA Pol-γ. Mitochondrial toxicity is a common feature with nucleoside analog drugs (liver/metabolic effects, myopathies, peripheral neuropathy). Replication of mitochondria occurs during all phases of cell cycle, including post-mitotic cells. Mito replication in post-mitotic cells becomes preferential consumer of endogenous nucleotide pools. Mitochondrial polymerases (pol-γ, Pol-RMT) have limited exonuclease (proofreading) capability. Alterations/effects to nuclear DNA more likely to manifest in other test systems. […] Analytical IEX-HPLC with fluorescence detection for optimal resolution of primer-extended products is used to detect—especially important in competition mixtures. This assays was applied for the assessment of incorporation efficiencies.
The reaction conditions were; 200 nM template, 50 nM primer, 300 nM enzyme and 1 mM or 100 μM NTPs, 30 min, 35° C.

DNA Pol-γ = molecular target: T1, DNA Pol-γ (Homo sapiens, UniProt P54098); assay: Triphosphate incorporation assay by DNA Pol-γ; type: biochemical; conditions: 100 nM template, 100 nM primer, 40 Units of enzyme, 1 mM or 100 μM dNTPs, 30 min, 37° C.
T1 sequence (P54098 1-1239): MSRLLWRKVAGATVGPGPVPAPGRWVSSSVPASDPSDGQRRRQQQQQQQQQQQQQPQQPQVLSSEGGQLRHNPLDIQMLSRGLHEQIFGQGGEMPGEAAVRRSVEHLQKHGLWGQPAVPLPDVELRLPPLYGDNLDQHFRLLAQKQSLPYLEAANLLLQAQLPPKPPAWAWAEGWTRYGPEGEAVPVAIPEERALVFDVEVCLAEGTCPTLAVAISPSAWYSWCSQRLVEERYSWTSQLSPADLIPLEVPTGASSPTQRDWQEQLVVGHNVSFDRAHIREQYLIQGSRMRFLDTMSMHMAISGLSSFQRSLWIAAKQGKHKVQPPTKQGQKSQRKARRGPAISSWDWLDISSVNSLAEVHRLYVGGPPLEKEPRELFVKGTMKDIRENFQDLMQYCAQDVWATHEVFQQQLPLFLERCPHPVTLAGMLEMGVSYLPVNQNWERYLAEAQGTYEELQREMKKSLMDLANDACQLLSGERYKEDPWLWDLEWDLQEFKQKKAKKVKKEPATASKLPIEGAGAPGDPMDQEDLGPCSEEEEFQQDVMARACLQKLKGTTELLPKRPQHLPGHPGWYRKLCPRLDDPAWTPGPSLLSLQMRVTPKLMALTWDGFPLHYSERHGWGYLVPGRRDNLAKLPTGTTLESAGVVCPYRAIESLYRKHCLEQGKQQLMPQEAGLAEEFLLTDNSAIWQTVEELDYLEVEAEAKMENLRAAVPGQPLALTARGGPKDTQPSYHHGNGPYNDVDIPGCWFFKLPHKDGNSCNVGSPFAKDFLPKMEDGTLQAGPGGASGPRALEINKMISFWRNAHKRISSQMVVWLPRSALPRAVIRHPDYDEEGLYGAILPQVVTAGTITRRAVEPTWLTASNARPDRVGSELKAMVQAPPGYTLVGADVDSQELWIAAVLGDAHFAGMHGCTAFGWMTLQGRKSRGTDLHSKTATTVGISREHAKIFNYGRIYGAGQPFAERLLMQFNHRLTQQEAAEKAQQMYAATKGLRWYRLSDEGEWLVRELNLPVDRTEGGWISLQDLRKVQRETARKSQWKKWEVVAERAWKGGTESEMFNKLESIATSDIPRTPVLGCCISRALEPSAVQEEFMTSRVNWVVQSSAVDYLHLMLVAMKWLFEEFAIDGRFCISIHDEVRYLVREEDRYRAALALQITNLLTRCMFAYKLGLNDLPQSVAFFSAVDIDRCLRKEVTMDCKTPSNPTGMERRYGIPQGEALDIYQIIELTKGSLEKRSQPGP
Experimental: as §1
The reaction conditions were: Reaction: 100 nM template, 100 nM primer, 40 Units of enzyme and 1 mM or 100 μM dNTPs, 30 min, 37° C.; diluted to 5 nM primer and analyzed by FLD-IEX-HPLC (Ex: 437, Em: 483 nm).

GO1 (HAO1) = assay: In vitro on-target activity, primary mouse hepatocytes, transfection, RT-qPCR (GO1/HAO1 siRNAs); type: cell-based; conditions: HAO1 (Seq 1)
Experimental: Cell culture and transfections: Primary Mouse Hepatocytes (Thermo Fisher Scientific/Gibco) were transfected by adding 4.9 μL of Opti-MEM plus 0.1 μL of Lipofectamine RNAiMax per well (Invitrogen, cat #13778-150) to 5 μL of siRNA duplexes per well into a 384-well plate and incubated at room temperature for 15 minutes. 40 μL of Dulbecco's Modified Eagle Medium (Hep3b) or William's Medium (PMH) containing ˜5 ×10^3 cells were then added to the siRNA mixture. Cells were incubated for 24 hours at 37° C. and then processed for RNA purification. Experiments were performed at 10 nM and 0.1 nM doses of siRNA.
Total RNA isolation using DYNABEADS mRNA Isolation Kit: RNA was isolated using an automated protocol on a BioTek-EL406 platform using DYNABEADs (Invitrogen, cat #61012). Briefly, 70 μL of Lysis/Binding Buffer and 10 μL of lysis buffer containing 3 μL of magnetic beads were added to each well. […]
Real time PCR: 2 μL of cDNA were added to a master mix containing 2 μL water, 0.5 μL of either an appropriate GAPDH TaqMan VIC Probe or the target probe and 5 μL Lightcycler 480 probe master mix (Roche, cat #04887301001) per well in a 384 well plate (Roche, cat #04887301001). […] To calculate relative fold change, real time data were analyzed using the ΔΔCt method and normalized to assays performed with cells transfected with a non-targeting control siRNA.

[1] = test system: luciferase reporter plasmids (psiCHECK2, Renilla luciferase fused to target sequence); assay: Off-target Dual-Glo luciferase reporter assay in COS-7 cells; type: cell-based; conditions: HAO1 (Seq 1); luciferase reporter plasmids co-transfected with siRNAs into COS-7 cells
Experimental: Dual-Glo® Luciferase assay: Cos7 cells (ATCC, Manassas, VA) were grown to near confluence at 37° C. in an atmosphere of 5% CO2 in DMEM (ATCC) supplemented with 10% FBS, before being released from the plate by trypsinization. siRNA and psiCHCECK2 plasmid transfection was carried out by adding 5 μL of siRNA duplexes and 5 μL of psiCHECK2 plasmid per well along with 5 μL of Opti-MEM plus 0.1 μL of Lipofectamine 2000 per well (Invitrogen, Carlsbad CA. cat #13778-150) and then incubated at room temperature for 15 minutes. The mixture was then added to the cells which were re-suspended in 35 ul of fresh complete media. The transfected cells were incubated at 37° C. in an atmosphere of 5% CO2.
48 hours after the siRNAs and psiCHECK2 plasmid were transfected; Firefly (transfection control) and Renilla (fused to target sequence) luciferase were measured. First, media was removed from cells. Then Firefly luciferase activity was measured by adding 20 μL of Dual-Glo® Luciferase Reagent equal to the culture medium volume to each well and mix. The mixture was incubated at room temperature for 30 minutes before luminescence (500 nm) was measured on a Spectramax (Molecular Devices) to detect the Firefly luciferase signal. Renilla luciferase activity was measured by adding 20 μL of room temperature of Dual-Glo® Stop & Glo® Reagent was added to each well and the plates were incubated for 10-15 minutes before luminescence was again measured to determine the Renilla luciferase signal. The Dual-Glo® Stop & Glo® Reagent, quenches the firefly luciferase signal and sustained luminescence for the Renilla luciferase reaction. siRNA activity was determined by normalizing the Renilla signal to the Firefly (control) signal within each well. The magnitude of siRNA activity was then assessed relative to cells that were transfected with the same vector but were not treated with siRNA or were treated with a non-targeting siRNA. All transfections were done at n=2 or greater.

[2] = rat, in vivo, sc, 30 mg/kg
[3] = Rat toxicity study, clinical pathology parameters; conditions: rats, single subcutaneous dose 30 mg/kg, cohort average

Pol-RMT, sequence (O00411 42-1230, species assumed): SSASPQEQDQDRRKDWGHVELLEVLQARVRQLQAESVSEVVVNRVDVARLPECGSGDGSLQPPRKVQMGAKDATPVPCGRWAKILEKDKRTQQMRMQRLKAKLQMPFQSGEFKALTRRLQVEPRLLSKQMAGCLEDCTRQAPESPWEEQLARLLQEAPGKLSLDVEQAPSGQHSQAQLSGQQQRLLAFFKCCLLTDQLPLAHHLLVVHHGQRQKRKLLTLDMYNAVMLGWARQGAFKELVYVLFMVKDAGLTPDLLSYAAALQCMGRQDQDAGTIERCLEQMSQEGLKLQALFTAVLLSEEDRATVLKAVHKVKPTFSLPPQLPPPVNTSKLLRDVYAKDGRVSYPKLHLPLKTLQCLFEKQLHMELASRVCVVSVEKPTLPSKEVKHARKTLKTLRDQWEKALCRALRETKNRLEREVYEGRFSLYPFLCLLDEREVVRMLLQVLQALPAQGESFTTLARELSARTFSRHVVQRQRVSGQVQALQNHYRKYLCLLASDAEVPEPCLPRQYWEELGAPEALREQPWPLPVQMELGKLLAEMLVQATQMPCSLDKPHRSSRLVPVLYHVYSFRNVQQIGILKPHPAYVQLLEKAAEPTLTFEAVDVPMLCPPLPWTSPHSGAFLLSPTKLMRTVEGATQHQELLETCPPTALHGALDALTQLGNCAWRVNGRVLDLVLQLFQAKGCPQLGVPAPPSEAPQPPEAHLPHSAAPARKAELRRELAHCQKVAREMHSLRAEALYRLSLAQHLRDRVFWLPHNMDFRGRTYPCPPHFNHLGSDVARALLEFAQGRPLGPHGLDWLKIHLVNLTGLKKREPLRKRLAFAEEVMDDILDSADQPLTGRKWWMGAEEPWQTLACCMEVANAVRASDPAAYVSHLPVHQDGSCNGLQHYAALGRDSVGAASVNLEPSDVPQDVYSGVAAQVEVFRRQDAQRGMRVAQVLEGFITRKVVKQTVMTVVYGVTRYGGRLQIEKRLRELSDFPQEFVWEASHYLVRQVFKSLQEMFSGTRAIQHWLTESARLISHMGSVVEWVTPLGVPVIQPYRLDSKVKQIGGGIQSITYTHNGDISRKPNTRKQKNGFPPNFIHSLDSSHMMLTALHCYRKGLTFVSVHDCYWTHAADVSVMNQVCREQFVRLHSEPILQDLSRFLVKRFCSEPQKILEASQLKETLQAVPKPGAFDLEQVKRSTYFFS

incorporation by Pol-RMT (Pol-RMT): appears not incorporate in Pol-RMT
Compound: C[C@@H](OP(=O)(O)OP(=O)(O)OP(=O)(O)O)[C@H]1O[C@@H](n2cnc3c(=O)[nH]c(N)nc32)[C@H](O)[C@@H]1O [5′-(R)—C-Me-GTP, 5′-(R)—C-Me-guanosine triphosphate]
incorporation by Pol-γ (DNA Pol-γ): Neither 5′-(S) nor (R)—C-Me-Gtp incorporate in Pol-γ at high concentrations

Compound: C[C@H](OP(=O)(O)OP(=O)(O)OP(=O)(O)O)[C@H]1O[C@@H](n2cnc3c(=O)[nH]c(N)nc32)[C@H](O)[C@@H]1O [5′-(S)—C-Me-G triphosphate (GTP), 5′-(S)—C-Me-guanosine triphosphate]
incorporation by Pol-RMT (Pol-RMT): incorporates in Pol-RMT at high concentrations
incorporation by Pol-γ (DNA Pol-γ): Neither 5′-(S) nor (R)—C-Me-Gtp incorporate in Pol-γ at high concentrations

Compound: Parent (AD-65644): GO1 siRNA; passenger g•a•auguGaaAGucaucgacaa(L), guide u•U•gucGaUGacuuUcAcauuc•u•g (sense AUGUGAAAGUCAUCGACAA; antisense GUCGAUGACUUUCACAUUC; phosphorothioate ends, overhangs, chemistry not fully specified)
On-Target mRNA remaining (%) 0.1 nM siRNA (GO1 (HAO1); 0.1 nM siRNA): 96.1%
On-Target mRNA remaining (%) 10 nM siRNA (GO1 (HAO1); 10 nM siRNA): 27.7%
IC50 [1]: 0.53 nM
A/G Avg. [2]: 1.1
ALB Avg. [3]: 3.0 g/dL
ALP Avg. [3]: 449 U/L
ALT Avg. [3]: 47 U/L
AST Avg. [3]: 180 U/L
BILI Avg. [3]: 0.52 mg/dL
CA Avg. [3]: 10.3 mg/dL
CHOL Avg. [3]: 74 mg/dL
CREAT Avg. [3]: 0.23 mg/dL
GLDH Avg. [3]: 77.5 U/L
GLOB Avg. [3]: 2.63 g/dL
GLUC Avg. [3]: 113 mg/dL
K Avg. [3]: 4.3 mmol/L
NA Avg. [3]: 140 mmol/L
PHOS Avg. [3]: 8.8 mg/dL
PROT Avg. [3]: 6 g/dL
TRIG Avg. [3]: 138 mg/dL
UREAN Avg. [3]: 16.8 mg/dL
